Measurements as given in patent publication USRE38257E1, “Piperdine derivatives and hypotensives containing the same” (Ajinomoto Co., Inc., priority 1988, dated 2003).

System: male spontaneously hypertensive rats
Experiment: Decrease in systolic blood pressure in spontaneously hypertensive rats after intravenous bolus injection, indirect (tail-cuff) method
Type: in vivo, rat
Conditions: for Decrease in systolic blood pressure (mmHg) time after administration (hour) 0.5: 0.5 hour after administration; for Decrease in systolic blood pressure (mmHg) time after administration (hour) 4: 4 hours after administration
Protocol: As test animals, four male spontaneously hypertensive rats (weight 400 to 440 g) that were sufficiently adapted for feeding and in which hypertension was confirmed were used.
Physiological saline aqueous solution containing 2.5% Nicolle and 2.5% ethanol of sample was intravenously administered by bolus injection at a dose of 1 ml per 1 kg of body weight. Systolic blood pressure after administration was measured by the indirect (tail-cuff) method.

Row | Compound | Decrease in systolic blood pressure (mmHg) time after administration (hour) 0.5 (dose 3 mg/kg i.v. bolus) | Decrease in systolic blood pressure (mmHg) time after administration (hour) 4 (dose 3 mg/kg i.v. bolus) | Decrease in systolic blood pressure (mmHg) time after administration (hour) 0.5 (dose 10 mg/kg i.v. bolus) | Decrease in systolic blood pressure (mmHg) time after administration (hour) 4 (dose 10 mg/kg i.v. bolus)
1 | Cl.Nc1ccc(C=CCN2CCC(=C3c4ccccc4C=Cc4ccccc43)CC2)cc1 [Example 231, 1-(4-Aminocinnamyl)-4-(5H-dibenzo[a,d]cyclohepten-5-ylidene)piperidine hydrochloride] | −132 mmHg | −115 mmHg |  | 
2 | Cl.Clc1ccccc1CN1CCC(=C2c3ccccc3C=Cc3ccccc32)CC1 [Example 128, 1-(2-Chlorobenzyl)-4-(5H-Dibenzo[a,d]cyclohepten-5-ylidene)piperidine hydrochloride] |  |  | −129 mmHg | −8 mmHg
3 | Cl.Nc1cccc2c1CC(CN1CCC(=C3c4ccccc4C=Cc4ccccc43)CC1)C2 (stereo not drawn) [Example 330, 4′-Amino-2-(4-(5H-Dibenzo[a,d]cyclohepten-5-ylidene)-1-piperidinyl)methylindan hydrochloride] |  |  | −93 mmHg | −25 mmHg
4 | 5-(4-(5H-Dibenzo[a,d]cyclohepten-5-ylidene)-1-piperidinyl)-2-isopropyl-2-phenylvaleronitrile hydrochloride [Example 122] |  |  | −120 mmHg | −62 mmHg
5 | COc1cc(CCCN2CCC(=C3c4ccccc4C=Cc4ccccc43)CC2)cc(OC)c1OC.Cl.Cl [Example 317, 3-(4-(5H-Dibenzo[a,d]cyclohepten-5-ylidene)-1-piperidinyl)-1-(3,4,5-trimethoxyphenyl)propane dihydrochloride] |  |  | −118 mmHg | −14 mmHg
6 | CCOC(=O)C(CCCN1CCC(=C2c3ccccc3C=Cc3ccccc32)CC1)C1CCCCC1.Cl (stereo not drawn) [Example 220, Ethyl 2-cyclohexyl-5-(4-(5H-Dibenzo[a,d]cyclohepten-5-ylidene)-1-piperidinyl)valerate hydrochloride] |  |  | −148 mmHg | −54 mmHg
7 | C1=Cc2ccccc2C(=C2CCN(CCCCc3ccccc3)CC2)c2ccccc21.Cl [Example 15, 4-(4-(5H-Dibenzo[a,d]cyclohepten-5-ylidene)-1-piperidinyl)-1-phenylbutane hydrochloride] |  |  | −130 mmHg | −136 mmHg
8 | Cl.OC1CCC(CCCCN2CCC(=C3c4ccccc4C=Cc4ccccc43)CC2)CC1 (stereo not drawn) [Example 296, 1-(1-(4-Hydroxy)cyclohexyl)-4-(4-(5H-dibenzo[a,d]cyclohepten-5-ylidene)-1-piperidinyl)butane hydrochloride] |  |  | −109 mmHg | −14 mmHg
9 | O=C(O)CCCN1CCC(=C2c3ccccc3C=Cc3ccccc32)CC1 [Example 200] |  |  | −10 mmHg | −24 mmHg
10 | Cl.Clc1ccc(CN2CCC(=C3c4ccccc4C=Cc4ccccc43)CC2)cc1 [Example 130, 1-(4-Chlorobenzyl)-4-(5H-Dibenzo[a,d]cyclohepten-5-ylidene)piperidine hydrochloride] |  |  | −42 mmHg | 9 mmHg
11 | Cl.N#CC1CCC(CCCCN2CCC(=C3c4ccccc4C=Cc4ccccc43)CC2)CC1 (stereo not drawn) [Example 297, 1-(1-(4-Cyano)cyclohexyl)-4-(4-(5H-Dibenzo[a,d]cyclohepten-5-ylidene)-1-piperidinyl)butane hydrochloride] |  |  | −129 mmHg | −57 mmHg
12 | COc1ccc(CCCCN2CCC(=C3c4ccccc4C=Cc4ccccc43)CC2)cc1OC.Cl [Example 221, 4-(5H-Dibenzo[a,d]cyclohepten-5-ylidene)-1-(4-(3′,4′-dimethoxyphenyl)butyl)piperidine hydrochloride] |  |  | −70 mmHg | −13 mmHg
13 | COc1ccc(CN2CCC(=C3c4ccccc4C=Cc4ccccc43)CC2)cc1OC.Cl [Example 174, 4-(5H-Dibenzo[a,d]cyclohepten-5-ylidene)-1-(3,4-dimethoxybenzyl)piperidine hydrochloride] |  |  | −8 mmHg | −16 mmHg
14 | CCCCCCCCCCCCCCN1CCC(=C2c3ccccc3C=Cc3ccccc32)CC1.Cl [Example 5, 4-(5H-Dibenzo[a,d]cyclohepten-5-ylidene)-1-tetradecylpiperidine hydrochloride] |  |  | −56 mmHg | −20 mmHg
15 | Cl.Cl.Nc1ccc(C=CCN2CCC(=C3c4ccccc4CCc4ccccc43)CC2)cc1 [Example 351, 1-(4-Aminocinnamyl)-4-(10,11-dihydro-5H-Dibenzo[a,d]cyclohepten-5-ylidene)-1-piperidine dihydrochloride] | −70 mmHg | −21 mmHg |  | 
16 | Cl.Cl.Nc1ccccc1CCCN1CCC(=C2c3ccccc3C=Cc3ccccc32)CC1 [Example 251, 1-(2-Aminophenyl)-3-(4-(5H-Dibenzo[a,d]cyclohepten-5-ylidene)-1-piperidinyl)propane dihydrochloride] |  |  | −110 mmHg | −24 mmHg
17 | Cl.O=[N+]([O-])c1ccc(CCCN2CCC(=C3c4ccccc4C=Cc4ccccc43)CC2)cc1 [Example 247, 3-(4-(5H-Dibenzo[a,d]cyclohepten-5-ylidene)-1-piperidinyl)-1-(4-notrophenyl)propane hydrochloride] |  |  | −119 mmHg | −40 mmHg
18 | COc1ccc(C(=O)CCCN2CCC(=C3c4ccccc4C=Cc4ccccc43)CC2)c(OC)c1OC.Cl [Example 171, 4-(4-(5H-Dibenzo[a,d]cyclohepten-5-ylidene)-1-piperidinyl)-2′,3′,4′-trimethoxybutyrophenone hydrochloride] |  |  | −122 mmHg | −8 mmHg
19 | C1=Cc2ccccc2C(=C2CCN(CCCCC3CCCCC3)CC2)c2ccccc21.Cl [Example 228] | −112 mmHg | −14 mmHg |  | 
20 | CC(C)C(C#N)(CCCN1CCC(=C2c3ccccc3C=Cc3ccccc32)CC1)c1ccc(Cl)c(Cl)c1.Cl (stereo not drawn) [Example 42, 5-(4-(5H-Dibenzo[a,d]cyclohepten-5-ylidene)-1-piperidinyl)-2-(3,4-dichlorophenyl)-2-isopropylvaleronitrile hydrochloride] |  |  | −66 mmHg | −14 mmHg
21 | C1=Cc2ccccc2C(=C2CCN(CCCC3CCCNC3)CC2)c2ccccc21.Cl.Cl (stereo not drawn) [Example 281, 3-(4-(5H-Dibenzo[a,d]cyclohepten-5-ylidene)-1-piperidinyl)-1-(3-piperidinyl)propane dihydrochloride] |  |  | −31 mmHg | −5 mmHg
22 | C1=Cc2ccccc2C(=C2CCN(CCCc3ccncc3)CC2)c2ccccc21.Cl.Cl [Example 289, 3-(4-(5H-Dibenzo[a,d]cyclohepten-5-ylidene)-1-piperidinyl)-1-(4-pyridyl)propane dihydrochloride] | −20 mmHg | 10 mmHg |  | 
23 | C1=Cc2ccccc2C(=C2CCN(CCC3CCCCC3)CC2)c2ccccc21.Cl [Example 8, 1-Cyclohexyl-2-(4-(5H-dibenzo[a,d]cyclohepten-5-ylidene)-1-piperidinyl)ethane hydrochloride] |  |  | −95 mmHg | −21 mmHg
24 | COC1=C(OC)CC2=CC=CC(CN3CCC(=C4c5ccccc5C=Cc5ccccc54)CC3)=CC2=C1.Cl [Example 319, 6-(4-(5H-Dibenzo[a,d]cyclohepten-5-ylidene)-1-piperidinyl)methyl-2,3-dimethoxybenzocycloheptene hydrochloride] |  |  | −104 mmHg | −20 mmHg
25 | Cc1cccc(CN2CCC(=C3c4ccccc4C=Cc4ccccc43)CC2)c1.Cl [Example 132, 4-(5H-Dibenzo[a,d]cyclohepten-5-ylidene)-1-(3-methylbenyl)piperidine hydrochloride] |  |  | −106 mmHg | −5 mmHg
26 | COc1ccc(C(O)CCCN2CCC(=C3c4ccccc4C=Cc4ccccc43)CC2)cc1OC.Cl (stereo not drawn) [Example 205, 4-(4-(5H-Dibenzo[a,d]cyclohepten-5-ylidene)-1-piperidinyl)-1-(3,4-dimethoxy)phenyl-1-hydroxybutane hydrochloride] |  |  | −22 mmHg | −4 mmHg
27 | O=C(O)C(CCN1CCC(=C2c3ccccc3C=Cc3ccccc32)CC1)C1CCCCC1 (stereo not drawn) [Example 238, 2-Cyclohexyl-4-(4-(5H-dibenzo[a,d]cyclohepten-5-ylidene)-1-piperidinyl)butyric acid] |  |  | −14 mmHg | −5 mmHg
